Test system: female NMRI mice
Test: Anorectic action: cumulative milk consumption after 24 h removal of feed
Assay type: in vivo
Conditions: 30 mg/kg i.p.
Procedure: The anorectic action was tested on female NMRI mice. After removal of feed for 24 hours, the preparation to be tested was administered intraperitoneally (i.p.) or by gavage (po). The animals were housed singly and, with free access to drinking water, they were offered evaporated milk 30 minutes after administration of the preparation. The consumption of evaporated milk was determined and the general behavior of the animals was monitored every half an hour for 7 hours. The measured milk consumption was compared to that of vehicle-treated control animals.

With CC1(O)c2ccc(Cl)cc2CC1(F)S(C)(=O)=O (centres unmarked) [Example 1, 5-Chloro-2-fluoro-2-methanesulfonyl-1-methyl-indan-1-ol] the “Reduction in cumulative milk consumption as % of the control” value (compared with control animals) was 25% and the “cumulative milk consumption by treated animals” value (feed removed for 24 h, evaporated milk offered 30 min after administration, monitored for 7 hours) was 4/2.88 ml.

Reference: US6812256B2, “Polysubstituted indan-1-ol systems for the prophylaxis or treatment of obesity” (Aventis Pharma Deutschland GmbH, priority 2001, dated 2004)
